Measured values from patent publication US10232060B2, “CEST systems exhibiting a concentration independent responsiveness” (BRACCO IMAGING S.P.A., priority 2010, dated 2019).

Assays:
Type in all cases: physicochemical
[1] = In vitro responsive properties towards temperature (Z-spectra); conditions: for resonance frequency of hydroxylic protons, less shifted stereoisomer / resonance frequency of hydroxylic protons, more shifted stereoisomer: 24 mM, pH 7.31
Experimental: A solution of Yb(III)HPDO3A (24 mM) having pH 7.31 was used for test.
The test was performed with a phantom containing solution of YbHPDO3A-tetramer in serum having different concentration, ranging from 0.26 to 8.4 mM., pH 7.4 and 298K. The dependence of the chemical shifts of the OH mobile protons (of the tetrameric complex stereoisomers) on the Temperature was tested by operating as formerly described for the monomeric compound.

[2] = Z-spectrum / NMR resonances of the exchangeable OH protons of NMR-distinguishable isomers in solution
Description: (§1) CEST MR contrast enhancement have been determined on images acquired at 7 T on a Bruker Avance 300 spectrometer equipped with a Micro2.5 microimaging probe. A typical RARE spin-echo sequence (rare factor 64) with an echo time of 3.3 ms and a TR value of 5 s were used. An acquisition matrix of 64×64 with a square FOV of 10 mm was used. The whole sequence was preceded by a saturation scheme consisting of a continuous wave pulse 2 s long with a RF intensity of 24, 12, 6 μT. The Z-spectra were successively analyzed in order to determine the ratiometric value by using a software compiled in MATLAB platform operating, broadly, as disclosed in Development and validation of a smoothing-splines-based correction method for improving the analysis of CEST-MR images, Stancanello J Terreno E, Delli Castelli D, Cabella C, Uggeri F 1, Aime S.; CONTRAST MEDIA & MOLECULAR IMAGING Volume: 3, Issue: 4, Pages: 136-149, 2008; and in Methods for an improved detection of the MRI-CEST effect. Terreno E, Stancanello 3, Longo D, Delli Castelli D, Milone L, Sanders H M H F, Kok M B, Uggeri F, Aime S; CONTRAST MEDIA & MOLECULAR IMAGING; Volume: 4; Issue: 5; Pages: 237-247; 2009 that are all herein included by reference. The total paramagnetic concentration of the solution was determined through the measurement of magnetic susceptibility of the solution on a Bruker Avance 600 spectrometer (12T).

[3] = In vitro responsiveness towards pH (CEST MRI of phantom, ratiometric ST); conditions: in vitro solutions buffered at different pH
Description: as §1, with “[…]. […]” for “(12T).”

chemical shift of hydroxyl group, less shifted NMR-distinguishable diastereoisomer ([2]; 20° C.)	chemical shift of hydroxyl group, more shifted NMR-distinguishable diastereoisomer ([2]; 20° C.)	responsiveness of the saturation transfer towards pH (in words) [3]	resonance frequency of hydroxylic protons, less shifted stereoisomer ([1]; 20° C.)	resonance frequency of hydroxylic protons, more shifted stereoisomer ([1]; 20° C.)	resonance frequency of hydroxylic protons, less shifted stereoisomer ([1]; 37° C.)	resonance frequency of hydroxylic protons, more shifted stereoisomer ([1]; 37° C.)	chemical shift of OH proton, first diastereoisomer (from water) ([2]; pH=2 and 37° C.)	chemical shift of OH proton, second diastereoisomer ([2]; pH=2 and 37° C.)	Compound	sensitivity of the OH chemical shift to temperature (in words) [1]
–	–	–	–	–	–	–	–	–	1,23-bis[4,7,10-triacetate[1,4,7,10-tetraazacyclododecan-(1)-yl]]-12,12′-bis[11[4,7,10-triacetate)-[1,4,7,10-tetraazacyclododecan-(1)-yl]]2-aza-3-oxo-5,8-dioxy-10-hydroxyundecanyl]2,22-dihydroxy-4,7,17,20-tetroxy-9,15-dioxo-10,14-diazatricosane tetra Ytterbium Complex (1:4) [YbHPDO3A-tetramer]	greatly increased
72 ppm	99 ppm	is different	72 ppm	99 ppm	64.3 ppm	88 ppm	–	–	CC(O)CN1CCN(CC(=O)[O-])CCN(CC(=O)[O-])CCN(CC(=O)[O-])CC1.[Yb+3] (centres unmarked) [YbHPDO3A]	very sensitive to the temperature
–	–	–	–	–	–	–	20.5 ppm	16.7 ppm	CC(O)CN1CCN(CC(=O)[O-])CCN(CC(=O)[O-])CCN(CC(=O)[O-])CC1.[Eu+3] (centres unmarked) [EuHPDO3A]	–
